{"source": "patent US10053428B2", "about": "“5-aminotetrahydroquinoline-2-carboxylic acids and their use” (BAYER PHARMA AKTIENGESELLSCHAFT, priority 2012, dated 2018)"}
{"test_system": "recombinant guanylate cyclase reporter cell line", "experiment": "sGC-activating activity in the CHO reporter cell in vitro", "type": "cell-based", "conditions": "read-out: MEC (minimum effective concentration)", "experimental": "B-2. Action at a Recombinant Guanylate Cyclase Reporter Cell Line\nThe cellular action of the compounds according to the invention is determined at a recombinant guanylate cyclase reporter cell line, as described in F. Wunder et al., Anal. Biochem. 32, 104-112 (2005).", "units": {"minimal effective concentration": "nM"}}
{"smiles": "CC(C)(C)c1ccc(COc2ccccc2CCN(CCc2ccc(C(=O)O)cc2)C2CCCc3nc(C(=O)O)ccc32)cc1", "note": "(racemic) [Example 12, rac-5-{(2-{2-[(4-tert-Butylbenzyl)oxy]phenyl}ethyl)[2-(4-carboxyphenyl)ethyl]amino}-5,6,7,8-tetrahydroquinoline-2-carboxylic acid]", "minimal effective concentration": 0.3}
{"smiles": "CC(C)(C)c1ccc(COc2ccccc2CCN(CCCCC(=O)O)C2CCCc3nc(C(=O)O)ccc32)cc1", "note": "(single isomer, unassigned) [Example 3]", "minimal effective concentration": 100}
{"smiles": "O=C(O)CCCCN(CCc1ccccc1OCc1ccc(-c2ccc(C(F)(F)F)cc2)cc1Cl)C1CCCc2nc(C(=O)O)ccc21", "note": "(single isomer, unassigned) [Example 7]", "minimal effective concentration": 0.3}
{"smiles": "O=C(O)CCCCN(CCc1ccccc1OCc1ccc(-c2ccc(C(F)(F)F)cc2)cc1Cl)C1CCCc2nc(C(=O)O)ccc21", "note": "(single isomer, unassigned) [Example 8]", "minimal effective concentration": 3}
{"smiles": "O=C(O)CCCCN(CCc1ccccc1OCCCCCc1ccccc1)C1CCCc2nc(C(=O)O)ccc21", "note": "(single isomer, unassigned) [Example 9]", "minimal effective concentration": 10}
{"smiles": "O=C(O)CCCCN(CCc1ccccc1OCCCCCc1ccccc1)C1CCCc2nc(C(=O)O)ccc21", "note": "(single isomer, unassigned) [Example 10]", "minimal effective concentration": 300}
{"smiles": "O=C(O)CCCCN(CCc1ccccc1OCc1ccc(-c2ccc(C(F)(F)F)cc2)cc1)C1CCCc2nc(C(=O)O)ccc21", "note": "(single isomer, unassigned) [Example 17]", "minimal effective concentration": 1000}
{"smiles": "Cc1ccc2oc(-c3ccc(COc4ccccc4CCN(CCc4ccc(C(=O)O)cc4)C4CCCc5nc(C(=O)O)ccc54)cc3)nc2c1", "note": "(single isomer, unassigned) [Example 21]", "minimal effective concentration": 100}
{"smiles": "Cc1ccc2oc(-c3ccc(COc4ccccc4CCN(CCc4ccc(C(=O)O)cc4)C4CCCc5nc(C(=O)O)ccc54)cc3)nc2c1", "note": "(single isomer, unassigned) [Example 22]", "minimal effective concentration": 1}
{"smiles": "O=C(O)c1ccc(CCN(CCc2ccccc2OCc2ccc(-c3nc4cc(C(F)(F)F)ccc4o3)cc2)C2CCCc3nc(C(=O)O)ccc32)cc1", "note": "(single isomer, unassigned) [Example 24]", "minimal effective concentration": 1}
{"smiles": "O=C(O)CCCCN(CCc1ccccc1OCc1ccc(-c2nc3cc(C(F)(F)F)ccc3o2)cc1)C1CCCc2nc(C(=O)O)ccc21", "note": "(single isomer, unassigned) [Example 25]", "minimal effective concentration": 0.3}
{"smiles": "O=C(O)c1ccc(CCN(CCc2ccccc2OCc2ccc(-c3nc4ccccc4o3)cc2)C2CCCc3nc(C(=O)O)ccc32)cc1", "note": "(single isomer, unassigned) [Example 26]", "minimal effective concentration": 1}
{"smiles": "O=C(O)c1ccc(CCN(CCc2ccccc2OCc2ccc(-c3nc4cc(OC(F)(F)F)ccc4o3)cc2)C2CCCc3nc(C(=O)O)ccc32)cc1", "note": "(single isomer, unassigned) [Example 29]", "minimal effective concentration": 3}
{"smiles": "N#Cc1ccc2oc(-c3ccc(COc4ccccc4CCN(CCc4ccc(C(=O)O)cc4)C4CCCc5nc(C(=O)O)ccc54)cc3)nc2c1", "note": "(single isomer, unassigned) [Example 30]", "minimal effective concentration": 1}
{"smiles": "N#Cc1ccc2oc(-c3ccc(COc4ccccc4CCN(CCCCC(=O)O)C4CCCc5nc(C(=O)O)ccc54)cc3)nc2c1", "note": "(single isomer, unassigned) [Example 31]", "minimal effective concentration": 10}
{"smiles": "O=C(O)CCCCN(CCc1ccccc1OCc1ccc(-c2nc3cc(Cl)ccc3o2)cc1)C1CCCc2nc(C(=O)O)ccc21", "note": "(single isomer, unassigned) [Example 32]", "minimal effective concentration": 0.3}
{"smiles": "O=C(O)c1ccc(CCN(CCc2cc(F)ccc2OCc2ccc(-c3ccc(C(F)(F)F)cc3)cc2Cl)C2CCCc3nc(C(=O)O)ccc32)cc1", "note": "(single isomer, unassigned) [Example 33]", "minimal effective concentration": 10}
{"smiles": "O=C(O)c1ccc(CCN(CCc2cc(F)ccc2OCc2ccc(-c3ccc(C(F)(F)F)cc3)cc2Cl)C2CCCc3nc(C(=O)O)ccc32)cc1", "note": "(single isomer, unassigned) [Example 34]", "minimal effective concentration": 1}
